# pIC50: −log10 of the molar value.
# Tested on: HIV-1
# Assay: HIV infectivity assay (Table 2, strain not given)
# Assay type: cell-based
# Settings: Human immunodeficiency virus 1, read-out: Activity Level
# Method: (§1) Compounds were profiled against two HIV-1 viruses, the M-tropic (CCR5 utilizing) Ba-L strain and the T-tropic (CXCR4 utilizing) IIIB strain. Both viruses were propagated in human peripheral blood lymphocytes. Compounds were tested for there ability to block infection of the HOS cell line (expressing hCXCR4/hCCR5/hCD4/pHIV-LTR-luciferase) by either HIV-1 Ba-L or HIV-1, IIIB. Compound cytotoxicity was also examined in the absence of virus addition.
# (§2) HOS cells (expressing hCXCR4/hCCR5/hCD4/pHIV-LTR-luciferase) were harvested and diluted in Dulbeccos modified Eagles media supplemented with 2% FCS and non-essential amino acid to a concentration of 60,000 cells/ml. The cells were plated into 96-well plates (100 ul per well) and the plates were placed in a tissue culture incubator (37° C.; 5% CO2/95% air) for a period of 24 h.
# Subsequently, 50 ul of the desired drug solution (4 times the final concentration) was added to each well and the plates were returned to the tissue culture incubator (37° C.; 5% CO2/95% air) for 1 h. Following this incubation 50 ul of diluted virus was added to each well (approximately 2 million RLU per well of virus). The plates were returned to the tissue culture incubator (37° C.; 5% CO2/95% air) and were incubated for a further 96 h.
# Following this incubation the endpoint for the virally infected cultures was quantified following addition of Steady-Glo Luciferase assay system reagent (Promega, Madison, Wis.). Cell viability or non-infected cultures was measured using a CellTiter-Glo luminescent cell viability assay system (Promega, Madison, Wis.). All luminescent readouts are performed on a Topcount luminescence detector (Packard, Meridien, Conn.).
# as §1, with “Ba-L was” for “Both viruses were”, “either peripheral blood lymphocytes or SupT1/CCR5+/CXCR4+ cells. IIIB was propagated in” for “human”, “their” for “there”
# as §2, with “FCS” for “FCS and non-essential amino acid”, “120,000” for “60,000”, “(50 μl” for “(100 ul”, “(370°” for “(37°”
# Subsequently, 50 μl of the desired drug solution (2 times the final concentration) was added to each well and the plates were returned to the tissue culture incubator (370° C.; 5% CO2/95% air) for 1 h. Following this incubation, 60 μl of diluted virus (4 times the final concentration) was added to 60 μl of 2× the final desired concentration of the compound and 100 μl of this compound/virus mix was added to each well (approximately 2 million RLU per well of virus). The plates were returned to the tissue culture incubator (370° C.; 5% CO2/95% air) and were incubated for a further 96 h.
row,SMILES,pIC50
1,"NCCCCn1c(CN2CCC[C@H]3CCc4cccnc4[C@H]32)nc2ccccc21 (racemic) [Example 38, (cis) 4-[2-(3,4,4a,5,6,10b-hexahydro-1,10-phenanthrolin-1(2H)-ylmethyl)-1H-benzimidazol-1-yl]-1-butanamine]",6.30 to 7.00
2,"NCCCCCn1c(CN2CCC[C@H]3CCc4cccnc4[C@H]32)nc2ccccc21 (racemic) [Example 39, (cis) 5-[2-(3,4,4a,5,6,10b-hexahydro-1,10-phenanthrolin-1(2H)-ylmethyl)-1H-benzimidazol-1-yl]-1-pentanamine]",6.30 to 7.00
3,"CN(C)CCCn1c(CN2CCC[C@H]3CCc4cccnc4[C@H]32)nc2ccccc21 (racemic) [Example 41, (cis) 3-[2-(3,4,4a,5,6,10b-hexahydro-1,10-phenanthrolin-1(2H)-ylmethyl)-1H-benzimidazol-1-yl]-N,N-dimethyl-1-propanamine]",> 7.00
4,"c1cnc2c(c1)CC[C@@H]1CCCN(Cc3nc4ccccc4n3CCCN3CCCCC3)[C@H]21 (racemic) [Example 43, (cis) 1-({1-[3-(1-piperidinyl)propyl]-1H-benzimidazol-2-yl}methyl)-1,2,3,4,4a,5,6,10b-octahydro-1,10-phenanthroline]",> 7.00
5,"c1cnc2c(c1)CC[C@@H]1CCCN(Cc3nc4ccccc4n3CCCN3CCOCC3)[C@H]21 (racemic) [Example 44, (cis) 1-({1-[3-(4-morpholinyl)propyl]-1H-benzimidazol-2-yl}methyl)-1,2,3,4,4a,5,6,10b-octahydro-1,10-phenanthroline]",6.30 to 7.00
6,"c1ccc(Cn2c(CN3CCC[C@H]4CCc5cccnc5[C@H]43)nc3ccccc32)nc1 (racemic) [Example 45, (cis) 1-{[1-(2-pyridinylmethyl)-1H-benzimidazol-2-yl]methyl}-1,2,3,4,4a,5,6,10b-octahydro-1,10-phenanthroline]",5.00 to 6.30
7,"c1cnc2c(c1)CC[C@@H]1CCCN(Cc3cn4c(N5CCOCC5)cccc4n3)[C@H]21 (racemic) [Example 52, (cis) 1-{[5-(4-morpholinyl)imidazo[1,2-a]pyridin-2-yl]methyl}-1,2,3,4,4a,5,6,10b-octahydro-1,10-phenanthroline]",5.00 to 6.30
8,"NCCCCn1c(CN2CC[C@@H]3CCc4cccnc4[C@H]32)nc2ccccc21 (racemic) [Example 130, (trans) 4-[2-(2,3,3a,4,5,9b-hexahydro-1H-pyrrolo[3,2-h]quinolin-1-ylmethyl)-1H-benzimidazol-1-yl]-1-butanamine]",6.30 to 7.00
9,"c1cnc2c(c1)CC[C@H]1CCN(Cc3nc4ccccc4n3Cc3nc4ccccc4[nH]3)[C@H]21 (racemic) [Example 131, (trans) 1-{[1-(1H-benzimidazol-2-ylmethyl)-1H-benzimidazol-2-yl]methyl}-2,3,3a,4,5,9b-hexahydro-1H-pyrrolo[3,2-h]quinoline]",5.00 to 6.30
10,"CN(C)CCCn1c(CN2CC[C@@H]3CCc4cccnc4[C@H]32)nc2ccccc21 (racemic) [Example 132, (trans) 3-[2-(2,3,3a,4,5,9b-hexahydro-1H-pyrrolo[3,2-h]quinolin-1-ylmethyl)-1H-benzimidazol-1-yl]-N,N-dimethyl-1-propanamine]",6.30 to 7.00
11,"c1cnc2c(c1)CC[C@H]1CCN(Cc3nc4ccccc4n3CCCN3CCCCC3)[C@H]21 (racemic) [Example 133, (trans) 1-({1-[3-(1-piperidinyl)propyl]-1H-benzimidazol-2-yl}methyl)-2,3,3a,4,5,9b-hexahydro-1H-pyrrolo[3,2-h]quinoline]",6.30 to 7.00
12,"NCCCCCn1c(CN2CCC[C@@H]3CCc4cccnc4[C@H]32)nc2ccccc21 (relative stereo) [Example 35, (trans)-5-[2-(3,4,4a,5,6,10b-hexahydro-1,10-phenanthrolin-1(2H)-ylmethyl)-1H-benzimidazol-1-yl]-1-pentanamine]",6.30 to 7.00
13,"NCCCCn1c(CN2CCC[C@@H]3CCc4cccnc4[C@H]32)nc2ccccc21 (relative stereo) [Example 37, (trans) 4-[2-(3,4,4a,5,6,10b-hexahydro-1,10-phenanthrolin-1(2H)-ylmethyl)-1H-benzimidazol-1-yl]-1-butanamine]",> 7.00
14,"CN(C)CCCn1c(CN2CCC[C@@H]3CCc4cccnc4[C@H]32)nc2ccccc21 (relative stereo) [Example 40, (trans) 3-[2-(3,4,4a,5,6,10b-hexahydro-1,10-phenanthrolin-1(2H)-ylmethyl)-1H-benzimidazol-1-yl]-N,N-dimethyl-1-propanamine]",6.30 to 7.00
15,"CN1CCCC(Cn2c(CN3CCC[C@@H]4CCc5cccnc5[C@H]43)nc3ccccc32)C1 (relative stereo) [Example 42, (trans) 1-({1-[(1-methyl-3-piperidinyl)methyl]-1H-benzimidazol-2-yl}methyl)-1,2,3,4,4a,5,6,10b-octahydro-1,10-phenanthroline]",6.30 to 7.00
16,"c1ccc(Cn2ccnc2Cn2c(CN3CCC[C@@H]4CCc5cccnc5[C@H]43)nc3ccccc32)cc1 (relative stereo) [Example 46, (trans) 1-[(1-{[1-(phenylmethyl)-1H-imidazol-2-yl]methyl}-1H-benzimidazol-2-yl)methyl]-1,2,3,4,4a,5,6,10b-octahydro-1,10-phenanthroline]",5.00 to 6.30
17,"CN1CCCN(c2cccc3nc(CN4CCC[C@@H]5CCCc6cccnc6[C@H]54)cn23)CC1 (relative stereo) [Example 125, (trans) 1-{[5-(4-methylhexahydro-1H-1,4-diazepin-1-yl)imidazo[1,2-a]pyridin-2-yl]methyl}-2,3,4,4a,5,6,7,11b-octahydro-1H-pyrido[3′,2′:6,7]cyclohepta[1,2-b]pyridine]",6.30 to 7.00
18,"CN1CCN(c2cccc3nc(CN4CCC[C@H]5CCc6cccnc6[C@H]54)[nH]c23)CC1 [Example 48, (4aR,10bS)-1-{[4-(4-methyl-1-piperazinyl)-1H-benzimidazol-2-yl]methyl}-1,2,3,4,4a,5,6,10b-octahydro-1,10-phenanthroline]",> 7.00
19,"c1cnc2c(c1)CC[C@@H]1CCCN(Cc3c[nH]cn3)[C@H]21 [Example 50, (4aR,10bS)-1-(1H-imidazol-4-ylmethyl)-1,2,3,4,4a,5,6,10b-octahydro-1,10-phenanthroline]",5.00 to 6.30
20,"CN(C)CCCn1cnc(CN2CCC[C@H]3CCc4cccnc4[C@H]32)c1 [Example 51a, (3-{4-[(4aR,10bS)-3,4,4a,5,6,10b-hexahydro-1,10-phenanthrolin-1(2H)-ylmethyl]-1H-imidazol-1-yl}propyl)dimethylamine]",5.00 to 6.30
21,"CN(C)CCCn1cncc1CN1CCC[C@H]2CCc3cccnc3[C@H]21 [Example 51b, (3-{5-[(4aR,10bS)-3,4,4a,5,6,10b-hexahydro-1,10-phenanthrolin-1(2H)-ylmethyl]-1H-imidazol-1-yl}propyl)dimethylamine]",5.00 to 6.30
22,"CN1CCN(c2cccc3nc(CN4CCC[C@H]5CCc6cccnc6[C@@H]54)cn23)CC1 [Example 53, (4aR,10bR)-1-{[5-(4-methyl-1-piperazinyl)imidazo[1,2-a]pyridin-2-yl]methyl}-1,2,3,4,4a,5,6,10b-octahydro-1,10-phenanthroline]",> 7.00
23,"CN1CCN(c2cccc3nc(CN4CCC[C@H]5CCc6cccnc6[C@H]54)c(CO)n23)CC1 [Example 54, [2-[(4aR,10bS)-3,4,4a,5,6,10b-hexahydro-1,10-phenanthrolin-1(2H)-ylmethyl]-5-(4-methyl-1-piperazinyl)imidazo[1,2-a]pyridin-3-yl]methanol]",> 7.00
24,"CCN(CC)Cc1c(CN2CCC[C@H]3CCc4cccnc4[C@H]32)nc2cccc(N3CCN(C)CC3)n12 [Example 55, N-ethyl-N-{[2-[(4aR,10bS)-3,4,4a,5,6,10b-hexahydro-1,10-phenanthrolin-1(2H)-ylmethyl]-5-(4-methyl-1-piperazinyl)imidazo[1,2-a]pyridin-3-yl]methyl}ethanamine]",> 7.00
